Laboratory results published in the supplement of paper PMC10307832.

Assays:
Assay in all cases: relative viability (nuclei count vs DMSO), 5 days (fraction); higher = more cells survive
GSK-J4 + Olaparib = compound: CCOC(=O)CCNc1cc(N2CCc3ccccc3CC2)nc(-c2ccccn2)n1 [GSK-J4] + O=C(c1cc(Cc2n[nH]c(=O)c3ccccc23)ccc1F)N1CCN(C(=O)C2CC2)CC1 [Olaparib] (partner 8 µM)
Outline: (§1)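 Relative viability was taken as the ratio of nuclei in treated wells to nuclei in vehicle wells. Lung cancer cell lines in 1536-well plates received compounds by pin tool one day after seeding, either one drug alone or a fixed anchor-drug dose plus five library-drug doses (not always all listed) in √10 steps. Nuclei were counted on 4× images after 5 days of treatment, and values are medians of duplicate plates.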

AZ3146 + Crizotinib = compound: CN1CCC(CC1)OC2=CC(=C(C=C2)NC3=NC=C4C(=N3)N(C(=O)N4C)C5CCCC5)OC [AZ3146] + C[C@@H](Oc1cc(-c2cnn(C3CCNCC3)c2)cnc1N)c1c(Cl)ccc(F)c1Cl [Crizotinib] (partner 1 µM)
Outline: as §1

AZ3146 + Trametinib = compound: CN1CCC(CC1)OC2=CC(=C(C=C2)NC3=NC=C4C(=N3)N(C(=O)N4C)C5CCCC5)OC [AZ3146] + CC(=O)Nc1cccc(-n2c(=O)n(C3CC3)c(=O)c3c(Nc4ccc(I)cc4F)n(C)c(=O)c(C)c32)c1 [Trametinib] (partner 0.02 µM)
Outline: as §1

AZ3146 + OSI-027 = compound: CN1CCC(CC1)OC2=CC(=C(C=C2)NC3=NC=C4C(=N3)N(C(=O)N4C)C5CCCC5)OC [AZ3146] + COc1cccc2cc(-c3nc([C@H]4CC[C@H](C(=O)O)CC4)n4ncnc(N)c34)[nH]c12 [OSI-027] (partner 0.5 µM)
Outline: as §1

Cell Line | relative viability (GSK-J4 + Olaparib; first compound 0.5 µM) | relative viability (GSK-J4 + Olaparib; first compound 1.581 µM) | relative viability (GSK-J4 + Olaparib; first compound 15.81 µM) | relative viability (GSK-J4 + Olaparib; first compound 50 µM) | relative viability (AZ3146 + Crizotinib; first compound 0.08 µM) | relative viability (AZ3146 + Crizotinib; first compound 0.253 µM) | relative viability (AZ3146 + Crizotinib; first compound 0.8 µM) | relative viability (AZ3146 + Crizotinib; first compound 2.53 µM) | relative viability (AZ3146 + Crizotinib; first compound 8 µM) | relative viability (AZ3146 + Trametinib; first compound 0.08 µM) | relative viability (AZ3146 + Trametinib; first compound 0.253 µM) | relative viability (AZ3146 + Trametinib; first compound 0.8 µM) | relative viability (AZ3146 + Trametinib; first compound 2.53 µM) | relative viability (AZ3146 + Trametinib; first compound 8 µM) | relative viability (AZ3146 + OSI-027; first compound 0.08 µM) | relative viability (AZ3146 + OSI-027; first compound 0.253 µM) | relative viability (AZ3146 + OSI-027; first compound 0.8 µM) | relative viability (AZ3146 + OSI-027; first compound 2.53 µM) | relative viability (AZ3146 + OSI-027; first compound 8 µM) | relative viability (GSK-J4 + Olaparib; first compound 5 µM)
HCC-366 | 0.362 | 0.308 | 0.37 | 0.285 | 0.514 | 0.695 | 0.246 | 0.192 | 0.0532 | 0.31 | 0.412 | 0.311 | 0.341 | 0.316 | 0.781 | 0.85 | 0.863 | 0.865 | 0.884 | –
HCC-827 | 0.622 | 0.65 | 0.589 | 0.36 | 0.943 | 0.859 | 1.04 | 0.913 | 0.911 | 0.63 | 0.498 | 0.481 | 0.554 | 0.477 | 0.84 | 0.763 | 0.807 | 0.786 | 0.726 | 0.767
HOP-62 | 0.394 | 0.333 | 0.491 | 0.28 | 0.946 | 0.955 | 0.917 | 1.09 | 0.601 | 0.451 | 0.354 | 0.325 | 0.387 | 0.389 | 0.755 | 0.796 | 0.742 | 0.857 | 0.866 | 0.426
NCI-H1437 | 0.587 | 0.596 | 0.609 | 0.301 | 0.875 | 0.906 | 0.853 | 1.02 | 0.863 | 0.445 | 0.48 | 0.511 | 0.489 | 0.361 | 0.813 | 0.876 | 0.821 | 0.875 | 0.995 | 0.601
PC-14 | 0.304 | 0.271 | 0.228 | 0.227 | 0.898 | 0.98 | 0.975 | 1 | 0.828 | 0.728 | 0.821 | 0.818 | 0.796 | 0.694 | 0.805 | 0.784 | 0.741 | 0.853 | 0.185 | 0.195
NCI-H2228 | 0.555 | 0.608 | 0.728 | 0.903 | 0.537 | 0.503 | 0.423 | 0.396 | 0.369 | 0.415 | 0.539 | 0.33 | 0.44 | 0.455 | 0.484 | 0.579 | 0.498 | 0.615 | 0.429 | 0.583
CAL-12T | 0.668 | 0.63 | 0.673 | 0.548 | 0.507 | 0.72 | 0.595 | 0.733 | 0.247 | 0.46 | 0.304 | 0.321 | 0.313 | 0.314 | 0.798 | 0.652 | 0.612 | 0.805 | 0.655 | 0.772
LOU-NH91 | 0.932 | 0.859 | 0.872 | 0.802 | 0.749 | 0.699 | 0.746 | 0.71 | 0.75 | 0.838 | 0.76 | 0.867 | 0.794 | 0.781 | 0.726 | 0.61 | 0.7 | 0.702 | 0.745 | 0.691
EMC-BAC-2 | 0.403 | 0.461 | 0.444 | 0.391 | 0.679 | 0.696 | 0.884 | 0.763 | 0.731 | – | – | 0.89 | 0.921 | 0.844 | 0.343 | 0.371 | 0.418 | 0.379 | 0.375 | 0.407
NCI-H1355 | 0.732 | 0.672 | 0.677 | 0.503 | 1.07 | 1.04 | 1.1 | 1.04 | 1.08 | 0.441 | 0.429 | 0.435 | 0.435 | 0.439 | 0.396 | 0.395 | 0.324 | 0.441 | 0.345 | 0.762
NCI-H727 | 0.597 | 0.596 | 0.718 | 0.472 | 0.813 | 0.796 | 0.8 | 0.586 | 0.365 | 0.359 | 0.365 | 0.335 | 0.417 | 0.364 | 0.674 | 0.56 | 0.595 | 0.671 | 0.413 | 0.581
NCI-H1666 | 0.684 | 0.676 | 0.746 | 0.699 | 1.08 | 1.01 | 1.08 | 0.934 | 0.778 | 0.848 | 0.875 | 0.851 | 0.887 | 0.761 | 0.866 | 0.881 | 0.922 | 0.806 | 0.839 | 0.786
NCI-H2126 | 0.912 | 0.895 | 0.855 | 0.762 | 1.05 | 0.992 | 1.06 | 1.07 | 0.989 | 0.58 | 0.553 | 0.503 | 0.534 | 0.547 | 0.6 | 0.706 | 0.537 | 0.784 | 0.649 | 0.966
LCLC-97TM1 | 0.272 | 0.373 | 0.293 | 0.196 | – | – | 0.485 | 0.352 | 0.304 | 0.268 | 0.2 | 0.157 | 0.184 | 0.223 | 0.501 | 0.585 | 0.364 | 0.415 | 0.396 | 0.364
COR-L23 | 0.279 | 0.311 | 0.306 | 0.293 | 0.506 | 0.649 | 0.622 | 0.502 | 0.407 | 0.587 | 0.646 | 0.56 | 0.718 | 0.6 | 0.685 | 0.766 | 0.781 | 0.835 | 0.769 | –
HARA | 0.767 | 0.761 | 0.888 | 0.343 | 0.983 | 1.03 | 1.03 | 0.72 | 0.206 | 0.708 | 0.491 | 0.634 | 0.858 | 0.623 | 0.31 | 0.41 | 0.436 | 0.582 | 0.506 | –
NCI-H2023 | 0.453 | 0.413 | 0.379 | 0.348 | 0.592 | 0.636 | 0.485 | 0.407 | 0.449 | 0.55 | 0.473 | 0.616 | 0.538 | 0.442 | 0.42 | 0.364 | 0.298 | 0.362 | 0.21 | 0.472
NCI-H1792 | 0.45 | 0.286 | 0.429 | 0.341 | 0.834 | 1.07 | 1.01 | 0.797 | 1 | 0.37 | 0.38 | 0.415 | 0.421 | 0.516 | 0.638 | 0.735 | – | 0.699 | 0.714 | 0.309
LC-2-ad | 0.69 | 0.643 | 0.701 | 0.55 | 0.365 | 0.511 | 0.481 | 0.494 | 0.321 | 0.858 | 0.928 | 0.928 | 0.894 | 0.902 | 0.694 | 0.781 | 0.801 | 0.92 | 0.819 | 0.672
LXF-289 | 1.03 | 1.01 | 0.991 | 0.891 | 0.848 | 0.886 | 0.795 | 0.781 | 0.444 | 0.629 | 0.688 | 0.633 | 0.651 | 0.633 | 0.775 | 0.704 | 0.77 | 0.781 | 0.77 | 1.14
NCI-H2347 | 0.587 | 0.597 | 0.675 | 0.437 | 0.522 | 0.677 | 0.822 | 0.647 | 0.699 | 0.295 | 0.308 | 0.326 | 0.293 | 0.326 | 0.245 | 0.452 | 0.48 | 0.293 | 0.466 | 0.554
RERF-LC-KJ | 0.867 | 0.928 | 0.814 | 0.484 | 0.794 | 0.864 | 0.816 | 0.864 | 0.66 | 0.848 | 0.982 | 0.796 | 0.911 | 0.769 | 0.669 | 0.548 | 0.571 | 0.575 | 0.398 | 0.867
NCI-H1650 | 0.852 | 0.739 | 0.639 | 0.509 | 0.933 | 0.95 | 0.84 | 0.95 | 0.489 | 0.594 | 0.546 | 0.602 | 0.492 | 0.414 | 0.474 | 0.622 | 0.515 | 0.607 | 0.395 | 0.871
NCI-H596 | 0.668 | 0.726 | 0.738 | 0.586 | 1.02 | 0.947 | 1.02 | 1.02 | 1.01 | 0.806 | 0.643 | 0.766 | 0.89 | 0.919 | 0.683 | 0.698 | 0.669 | 0.762 | 0.563 | 0.734
NCI-H1734 | 0.652 | 0.549 | 0.582 | 0.333 | 0.678 | 0.752 | 0.655 | 0.697 | 0.598 | 0.641 | 0.663 | 0.594 | 0.662 | 0.62 | 0.592 | 0.554 | 0.641 | 0.591 | 0.553 | 0.551
NCI-H1915 | 0.279 | 0.229 | 0.224 | 0.257 | 0.878 | 0.905 | 0.852 | 0.896 | 0.82 | 0.312 | 0.303 | 0.294 | 0.306 | 0.319 | 0.519 | 0.637 | 0.663 | 0.625 | 0.628 | –
NCI-H838 | 0.696 | 0.653 | 0.568 | 0.411 | 0.797 | 0.798 | 0.656 | 0.613 | 0.281 | 0.553 | 0.467 | 0.462 | 0.481 | 0.227 | 0.38 | 0.432 | 0.341 | 0.325 | 0.373 | 0.514
